# Reference: patent US12552790B2, “Positive modulators of the muscarinic acetylcholine receptor M4” (Vanderbilt University, priority 2023, dated 2026)
# Legend:
# Human M4 = molecular target: T1, Human M4 (Homo sapiens, UniProt P08173); test: M4 cell-based functional assay, calcium mobilization, potentiation of ACh EC20; conditions: for Emax at 30 µM: % ACh maximum at 30 μM; for EC50: CHO-K1 hM4-Gqi5 cells, calcium flux, ACh EC20
# T1 construct: expressed in transfected cells
# T1 sequence (P08173 1-479): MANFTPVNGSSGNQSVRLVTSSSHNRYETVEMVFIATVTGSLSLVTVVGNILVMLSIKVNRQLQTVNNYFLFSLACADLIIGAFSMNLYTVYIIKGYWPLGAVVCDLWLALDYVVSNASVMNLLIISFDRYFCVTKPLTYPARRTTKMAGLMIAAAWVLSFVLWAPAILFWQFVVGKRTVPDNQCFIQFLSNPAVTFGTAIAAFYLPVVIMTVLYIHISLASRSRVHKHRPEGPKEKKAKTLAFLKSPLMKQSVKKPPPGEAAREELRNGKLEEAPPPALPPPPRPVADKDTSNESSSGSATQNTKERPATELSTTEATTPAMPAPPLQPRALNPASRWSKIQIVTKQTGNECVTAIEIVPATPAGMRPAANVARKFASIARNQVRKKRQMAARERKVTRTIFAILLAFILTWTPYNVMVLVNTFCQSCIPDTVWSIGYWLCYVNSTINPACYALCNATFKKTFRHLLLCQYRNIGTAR
# Description: Human and rat M4 cDNAs, along with the chimeric G protein Gqi5, were transfected into Chinese hamster ovary (CHO-K1) cells purchased from the American Type Culture Collection using Lipofectamine2000. The transfected cells were subjected to selection antbiotic treatment to generate stable cell lines; G418 sulfate (1 mg/ml) for selecting M4 expressing cells and Hygromycin B (500 μg/mL) for selecting Gqi5 expressing cells. The resulting polyclones were further screened to obtain monoclones of hM4-Gqi5 and rM4-Gqi5 for compound screening assay. Stable monoclone cells were maintained in Ham's F-12 medium containing 10% heat-inactivated fetal bovine serum (FBS), 1× Antibiotic/Antimycotic, 20 mM HEPES, 500 μg/mL G418 sulfate, and 200 μg/mL Hygromycin B in 37° C. humidified incubators in the presence of 5% CO2.
# (§1) The high throughput assay was employed to measure receptor-induced mobilization of intracellular calcium to determine compound activity. Test compound was added to cells expressing the muscarinic receptors that were loaded with calcium sensitive fluorescent dye. After a ˜2.5 minute incubation period, a submaximal (EC20) concentration of acetylcholine was added, and the response measured. This kinetic assay allows for simultaneous screening and potency determination of multiple pharmacological modes of action including agonist and potentiator activity. CHO-K1 cells stably expressing muscarinic receptors were plated in growth medium lacking G418 and hygromycin at 15,000 cells/20 μL/well in Greiner 384-well black-walled, tissue culture (TC)-treated, clear-bottom plates (Greiner Bio-One). Cells were incubated overnight at 37° C. and 5% CO2. The next day, calcium assay buffer (Hank's balanced salt solution (HBSS), 20 mM HEPES, 2.5 mM Probenecid, 4.16 mM sodium bicarbonate (Sigma-Aldrich, St. Louis, MO)) was prepared to dilute compounds, agonists, and Fluo-4-acetomethoxyester (Fluo-4-AM), fluorescent calcium indicator dye. Compounds were serially diluted 1:3 into 10 point concentration response curves in DMSO using the Bravo Liquid Handler (Agilent, Santa Clara, CA), transferred to a 384 well daughter plates using an Echo acoustic liquid handler (Beckman Coulter, Indianapolis, Indiana), and diluted in assay Buffer to a 2× final concentration. The agonist plates were prepared using acetylcholine (ACh, Sigma-Aldrich, St. Louis, MO) concentrations for the EC20 and ECMAX responses by diluting in assay buffer to a 5× final concentration. The 2× dye solution (2.3 μM) was prepared by mixing a 2.3 mM Fluo-4-AM stock in DMSO with 10% (w/v) pluronic acid F-127 in a 1:1 ratio in assay buffer. Using a microplate washer (BioTek, Winooski, VT), cells were washed with assay buffer for 3 times to remove medium. After the final wash, 20 μL of assay buffer remained in the cell plates. Immediately, 20 μL of the 2× dye solution (final 1.15 μM) was added to each well of the cell plate using a Multidrop Combi dispenser (Thermo Fisher, Waltham, MA). After cells were incubated with the dye solutions for 45 min at 37° C. in the presence of 5% CO2, the dye solutions were removed and replaced with assay buffer using a microplate washer, leaving 20 μL of assay buffer in the cell plate.
# The prepared compound, agonist, and cell plates were placed inside the Functional Drug Screening System uCell (FDSS uCell, Hamamatsu, Japan) to measure the calcium flux. The triple add protocol was used to measure Ca kinetics; Compound, ACh for EC20, and ACh for EC80 adds in an order. Briefly, after establishment of a fluorescence baseline for 2 seconds (excitation, 480 nm; emission, 530 nm), first add occurred by adding 20 μL of test compound to the cells, and the response was measured for 140 seconds. This is followed by second add; 10 μL (5×) of an EC20 concentration of ACh agonist was added to the cells, and the response of the cells was measured for 125 seconds. […]
# Human M2 = molecular target: T2, Human M2 (Homo sapiens, UniProt P08172); test: M2 cell-based functional assay, calcium mobilization (selectivity); conditions: for Emax at 30 µM: % ACh maximum at 30 μM
# T2 construct: expressed in transfected cells; host or cells: CHO-K1
# T2 sequence (P08172 1-466): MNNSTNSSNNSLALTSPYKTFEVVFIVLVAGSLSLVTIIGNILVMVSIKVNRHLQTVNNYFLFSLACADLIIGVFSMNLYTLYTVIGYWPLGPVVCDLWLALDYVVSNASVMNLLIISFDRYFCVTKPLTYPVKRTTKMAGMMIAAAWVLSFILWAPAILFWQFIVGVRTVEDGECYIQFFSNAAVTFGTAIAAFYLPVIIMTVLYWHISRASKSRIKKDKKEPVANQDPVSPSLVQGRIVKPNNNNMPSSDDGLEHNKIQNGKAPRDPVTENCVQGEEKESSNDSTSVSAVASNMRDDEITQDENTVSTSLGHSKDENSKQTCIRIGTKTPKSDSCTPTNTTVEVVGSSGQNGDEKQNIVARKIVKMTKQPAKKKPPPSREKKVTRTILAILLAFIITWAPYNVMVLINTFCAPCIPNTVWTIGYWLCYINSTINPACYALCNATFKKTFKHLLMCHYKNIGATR
# Description: as §1
# The prepared compound, agonist, and cell plates were placed inside the Functional Drug Screening System uCell (FDSS uCell, Hamamatsu, Japan) to measure the calcium flux. The triple add protocol was used to measure Ca kinetics; Compound, ACh for EC20, and ACh for EC80 adds in an order. Briefly, after establishment of a fluorescence baseline for 2 seconds (excitation, 480 nm; emission, 530 nm), first add occurred by adding 20 μL of test compound to the cells, and the response was measured for 140 seconds. This is followed by second add; 10 μL (5×) of an EC20 concentration of ACh agonist was added to the cells, and the response of the cells was measured for 125 seconds. Immediately, the third add occurred by adding […] (5×) of an EC80 concentration of ACh and the response of the cells was measured for 90 seconds. Acetylcholine-mediated maximum response (ECmax) was measured by adding 1 mM ACh as third add in the control wells. DMSO vehicle was added to the control wells in the first add for assessing ACh EC20, EC80, and ECmax responses. Calcium fluorescence was recorded as fold over basal fluorescence and raw data were normalized to the maximal response to ACh agonist. Agonist activity was analyzed as a concentration-dependent increase in calcium mobilization upon compound addition. Positive allosteric modulator activity was analyzed as a concentration-dependent increase in the EC20 acetylcholine response. Antagonist activity was analyzed as a concentration-dependent decrease in the EC80 acetylcholine response. […]
# [1] = test system: amphetamine-induced hyperlocomotion in male Sprague-Dawley rats; test: Amphetamine-induced hyperlocomotion in rats; type: in vivo; conditions: 10 mg/kg oral gavage, rat, amphetamine 0.75 mg/kg s.c.
# Description: Drugs: d-Amphetamine hemisulfate was obtained from Sigma (St. Louis, MO). Salt-correction was used to determine the correct amount of the d-amphetamine hemisulfate form in milligrams to add to sterile water in order to yield a 0.75 mg/mL solution, which would be dosed at 1 mL/kg body weight of each animal. […] The solutions were formulated so that animals were injected with a volume equal to 10 mL/kg body weight for all compounds. The appropriate amount according to the dosage was mixed in 10% Tween 80 (Sigma) in sterile water. The mixtures were then vortexed and stored in a 39° C. sonication bath for 1 hour, until in a solution or microsuspension (depending on dose).
# Animals: Male Sprague-Dawley rats weighing 239-300 grams and averaging 265 g (Harlan, Inc., Indianapolis, IN) were used. They were housed in the animal care facility certified by the American Association for the Accreditation of Laboratory Animal Care (AALAC) under a 12-hour light/dark cycle (lights on: 6 a.m.; lights off: 6 p.m.) and had free access to food and water. The animals used in this experiment were food-deprived the evening before experimentation for oral dosing of compound/vehicle. The experimental protocols performed during the light cycle were approved by the Institutional Animals Care and Use Committee of Vanderbilt University and conformed to the guidelines established by the National Research Council Guide for the Care and Use of Laboratory Animals.
# Amphetamine-induced Hyperlocomotion: Male Harlan Sprague Dawley rats were habituated in Smart Open Field locomotor activity test chambers (Hamilton-Kinder, San Diego, CA) with 16×16 photo beams to automatically record locomotor activity. […] They were monitored for an additional 30 minutes and then injected subcutaneously with vehicle or 0.75 mg/kg amphetamine. Animals were then monitored for an additional 60 minutes, for a total of 120 minutes. Data were expressed as changes in ambulation defined as total number of beam breaks per 5 minute interval. Terminal brain and plasma samples were collected at the end of the study for pharmacokinetic analysis.
# Data Analysis: Behavioral data were analyzed using a two-way ANOVA with main effects of treatment and time. Post hoc analysis was performed using a Dunnett's t-test with all treatment groups compared to the Vehicle/amphetamine group (VAMP) group using GraphPad Prism V.5.04 (GraphPad Software, San Diego, CA). Data were graphed using GraphPad Prism V.5.04 (GraphPad Software, San Diego, CA). A probability of p≤0.05 was taken as the level of statistical significance. In addition, the total number of beam breaks from the amphetamine administration (65 min) to the end of the study (120 min) was calculated and graphed. Percent Reversal was calculated as follows using Microsoft Excel: In each animal, total ambulation from t=65 to t=120 was summed. The mean of each sum was calculated in the VAMP group. Then, for each animal, Percent Reversal was calculated with the following formula: Percent Reversal=100−{[(total ambulation in each animal from t=65 to t=120)/(mean of each sum from t=65 to t=120 in VAMP group)]*100}. The mean Percent Reversal, as well as the standard error, was calculated for each dose group using GraphPad Prism V5.04.
# [2] = M2 cell-based functional assay, calcium flux
Compound,Emax at 30 µM (Human M4) [%],EC50 (Human M4) [nM],Emax at 30 µM (Human M2) [%],EC50 (Human M2; [2]) [nM],Human M2 EC50 (Human M2; [2]),percent reversal of amphetamine-induced hyperlocomotion [1] [%]
"[2H]C1([2H])Oc2ccc(OC3CCN(c4nc5nn(C)c(=O)n5c5c4CCCC5)CC3)cc2OC1([2H])[2H] [Compound A15, 5-(4-((2,3-dihydrobenzo[b][1,4]dioxin-6-yl-2,2,3,3-d4)oxy)piperidin-1-yl)-2-methyl-6,7,8,9-tetrahydro-[1,2,4]triazolo[4,3-a]quinazolin-1(2H)-one]",83,53,45,5920,,
"[2H]C1([2H])Oc2ccc(OC3CCN(c4nc5n[nH]c(=O)n5c5c4CCC5)CC3)cc2OC1([2H])[2H] [Compound A16, 5-(4-((2,3-dihydrobenzo[b][1,4]dioxin-6-yl-2,2,3,3-d4)oxy)piperidin-1-yl)-2,6,7,8-tetrahydro-1H-cyclopenta[e][1,2,4]triazolo[4,3-a]pyrimidin-1-one]",84,4,48,2860,,
"[2H]C1([2H])Oc2ccc(OC3CCN(c4nc5n[nH]c(=O)n5c5c4CCCC5)CC3)cc2OC1([2H])[2H] [Compound A17, 5-(4-((2,3-dihydrobenzo[b][1,4]dioxin-6-yl-2,2,3,3-d4)oxy)piperidin-1-yl)-6,7,8,9-tetrahydro-[1,2,4]triazolo[4,3-a]quinazolin-1(2H)-one]",87,64,,,Inactive,
"Cc1nnc2sc(C(=O)NCc3ccc(S(=O)(=O)C(F)(F)F)cc3)c(N)c2c1C [VU0467154, reference compound]",,,,,,56.2

# Second part, led by results:
Emax at 30 µM (Human M4) [%],EC50 (Human M4) [nM],Emax at 30 µM (Human M2) [%],EC50 (Human M2; [2]) [nM],Human M2 EC50 (Human M2; [2]),Compound,percent reversal of amphetamine-induced hyperlocomotion [1] [%]
84,3,60,2230,,"[2H]C1([2H])Oc2ccc(OC3CCN(c4nc5nn(C)c(=O)n5c5c4CCC5)CC3)cc2OC1([2H])[2H] [Compound A14, 5-(4-((2,3-dihydrobenzo[b][1,4]dioxin-6-yl-2,2,3,3-d4)oxy)piperidin-1-yl)-2-methyl-2,6,7,8-tetrahydro-1H-cyclopenta[e][1,2,4]triazolo[4,3-a]pyrimidin-1-one]",
98,3,53,1110,,"[2H]C([2H])([2H])n1nc2nc(N3CCC(Oc4ccc5c(c4)OC([2H])([2H])C([2H])([2H])O5)CC3)c(C)c(C)n2c1=O [Compound A18, 7-(4-((2,3-dihydrobenzo[b][1,4]dioxin-6-yl-2,2,3,3-d4)oxy)piperidin-1-yl)-5,6-dimethyl-2-(methyl-d3)-[1,2,4]triazolo[4,3-a]pyrimidin-3(2H)-one]",
